Experimental data as given in PubChem BioAssay (NCI).
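Tested at 5 concentrations; 48 h exposure; 96-well plates; endpoints linearly interpolated, else capped at highest concentration. GI50 is the concentration that inhibits growth by half. TGI is the concentration that stops growth completely.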

Experiments:
Experiment in all cases: NCI-60 cell line screen, 48 h
A498 renal = test system: A498 renal
A549 NSCLC = test system: A549 NSCLC
HCT-116 colon = test system: HCT-116 colon
SK-MEL-2 melanoma = test system: SK-MEL-2 melanoma
SK-MEL-28 melanoma = test system: SK-MEL-28 melanoma
SNB-75 CNS = test system: SNB-75 CNS
IGROV1 ovarian = test system: IGROV1 ovarian
SF-539 CNS = test system: SF-539 CNS
MDA-MB-231 breast = test system: MDA-MB-231 breast
HOP-92 NSCLC = test system: HOP-92 NSCLC

| Compound | TGI (A498 renal) [µM] | TGI (A549 NSCLC) [µM] | TGI (HCT-116 colon) [µM] | TGI (SK-MEL-2 melanoma) [µM] | TGI (SK-MEL-28 melanoma) [µM] | TGI (SNB-75 CNS) [µM] | TGI (IGROV1 ovarian) [µM] | TGI (SF-539 CNS) [µM] | TGI (MDA-MB-231 breast) [µM] | TGI (HOP-92 NSCLC) [µM] | GI50 (A498 renal) [µM] | GI50 (A549 NSCLC) [µM] | GI50 (HCT-116 colon) [µM] | GI50 (IGROV1 ovarian) [µM] | GI50 (SF-539 CNS) [µM] | GI50 (SK-MEL-2 melanoma) [µM] | GI50 (SK-MEL-28 melanoma) [µM] | GI50 (SNB-75 CNS) [µM] |
| --- | --- | --- | --- | --- | --- | --- | --- | --- | --- | --- | --- | --- | --- | --- | --- | --- | --- | --- |
| CC(=O)Oc1c(C)n(CCCl)ccc1=O | > 100 | > 100 | > 100 | > 100 | > 100 | > 100 | – | – | – | – | – | – | – | – | – | – | – | – |
| CC1=C(C(=O)Nc2ccccc2)C(c2ccc3c(c2)OCO3)C(C(=O)Nc2ccccc2)=C(C)N1 | > 100 | > 100 | – | 74.5 | > 100 | – | > 100 | 76 | – | – | – | – | – | – | – | – | – | – |
| CCOC(=O)c1cccc(=O)c(C(=O)OCC)c1 | > 100 | > 100 | > 100 | > 100 | > 100 | > 100 | > 100 | 75.9 | – | – | – | – | – | – | – | – | – | – |
| ClC(=Nc1cccc2ccccc12)N(c1ccccc1)c1ccccc1 | > 100 | > 100 | > 100 | > 100 | > 100 | > 100 | > 100 | – | > 100 | – | – | – | – | – | – | – | – | – |
| Cc1cc(C)nc(NS(=O)(=O)c2ccc(Nc3c4ccccc4nc4c(C(=O)Nc5ccc(S(N)(=O)=O)cc5)cccc34)cc2)n1 | > 100 | > 100 | > 100 | > 100 | > 100 | 88.4 | > 100 | > 100 | – | > 100 | – | – | – | – | – | – | – | – |
| O=S(=O)(O)CS(=O)(=O)OCCCl | > 100 | > 100 | > 100 | – | > 100 | > 100 | > 100 | > 100 | – | > 100 | – | – | – | – | – | – | – | – |
| N#Cc1ccccc1NC(=O)C(=O)C(C(=O)c1ccccc1-c1ccccc1)C1OC(=O)c2ccccc21 (configuration not stated) | 45.2 | > 100 | 23 | 32.1 | 40.4 | 29.9 | 66.7 | 22.7 | – | 38.8 | – | – | – | – | – | – | – | – |
| COc1ccc(/C=C2/CCCC/C2=N/O)cc1 | > 100 | > 100 | > 100 | > 100 | > 100 | > 100 | > 100 | > 100 | – | > 100 | – | – | – | – | – | – | – | – |
| CC1=C(C(=O)Nc2ccc([N+](=O)[O-])cc2)C(c2ccco2)C(C(=O)Nc2ccc([N+](=O)[O-])cc2)=C(C)N1 | 82 | > 100 | – | 28 | > 100 | > 100 | > 100 | > 100 | – | 56.8 | – | – | – | – | – | – | – | – |
| CCOC(=O)Cc1c(Cc2[nH]c(C(=O)OCc3ccccc3)c(CC(=O)OCC)c2CC(=O)OCC)[nH]c(C(=O)OCc2ccccc2)c1CC(=O)OCC | > 100 | > 100 | > 100 | – | > 100 | > 100 | > 100 | > 100 | – | > 100 | – | – | – | – | – | – | – | – |
| CCCCCCC(=O)C/C(CCC(=O)N(Cc1ccccc1)Cc1ccccc1)=N\Nc1ccc([N+](=O)[O-])cc1[N+](=O)[O-] | > 100 | > 100 | > 100 | > 100 | > 100 | > 100 | > 100 | > 100 | – | > 100 | – | – | – | – | – | – | – | – |
| O=C1C2=C(c3ccccc31)C(c1ccc(Cl)cc1)N1C(=O)CCSC1=N2 (configuration not stated) | > 100 | > 100 | > 100 | > 100 | > 100 | > 100 | > 100 | > 100 | – | > 100 | – | – | – | – | – | – | – | – |
| C/C(=N\NC(=S)Nc1ccc(C(=O)O)cc1)c1ccccn1 | 50.7 | > 100 | 51.4 | 35.4 | > 100 | 40 | 85.8 | 40.3 | – | > 100 | – | – | – | – | – | – | – | – |
| CC(=O)[CH-]C(=O)c1ccccc1.CC(=O)[CH-]C(=O)c1ccccc1.CCN(CC)CC[O-].CCN(CC)CC[O-].Cl.[Ti+4] | 72.5 | 98.6 | > 100 | 93.9 | 92.6 | 47.3 | > 100 | 76.5 | – | – | 26.2 | 27.9 | 27.2 | 45.8 | 27.2 | 26.9 | 32.9 | 21.9 |
| CC1=COC(=O)c2ccccc2N1 | – | > 100 | > 100 | > 100 | > 100 | > 100 | > 100 | > 100 | – | > 100 | – | – | – | – | – | – | – | – |
| CCOP(=O)(OCC)C1C(=O)O[C@H]2CCCC[C@@H]12 (some centres not stated) | > 100 | > 100 | > 100 | > 100 | > 100 | > 100 | > 100 | > 100 | – | – | – | – | – | – | – | – | – | – |
| NNC(=O)/C(=C/c1cccc([N+](=O)[O-])c1)NC(=O)c1ccccc1 | > 100 | > 100 | > 100 | > 100 | > 100 | > 100 | > 100 | > 100 | – | > 100 | – | – | – | – | – | – | – | – |
